For data set [1], the system named is subcutaneous adipocytes. Kind of data set: lipid assay (AdipoRed staining of total lipid). The data set is classed as cell-based. Conditions: for Assay in which the combination showed better activity than the corresponding active substance alone: Lipid: active substance combined with 10 ng/ml N-(4-amino-2-methylquinolin-6-yl)-2-((4-ethylphenoxy)methyl)benzamide, adipocytes, one week, AdipoRed, assay named in cell = better activity. How it is done: The lipid assay is performed on subcutaneous adipocytes. Cell culture dishes are inoculated with preadipocytes, which undergo differentiation into adipocytes. This is followed by treatment with the active substance for one week, during which the cells synthesize lipids and store them in vesicles. The total amount of lipid as a function of active substance effects is determined at the end of the culture period. This is done by staining the cell monolayer with the lipophilic fluorescent dye AdipoRed, followed by quantification by fluorescence spectroscopy.

In data set [2] the test system is human adipocytes. Put plainly: LDH (lactate dehydrogenase) cytotoxicity assay. As to conditions: for Assay in which the combination showed better activity than the corresponding active substance alone: LDH: active substance combined with 10 ng/ml N-(4-amino-2-methylquinolin-6-yl)-2-((4-ethylphenoxy)methyl)benzamide, LDH in medium supernatant, assay named in cell = better activity (less LDH escape).
Description: The third assay performed is the LDH (lactate dehydrogenase) cytotoxicity assay. In this assay, the metabolic enzyme LDH is detected in the medium supernatant of the cell monolayer by adding a substrate for the enzyme to the cell culture supernatant. Reaction of the latter produces a color change, which is determined photometrically. The magnitude of the color change correlates here with the amount of LDH in the cell culture supernatant.
For all assays, the active substances were present as 1000× stocks dissolved to 10 mM in DMSO and were diluted 1:1000 in the appropriate cell culture medium for use.

The subject of data set [3] is dermal fibroblasts. Put plainly: viability assay (BrdU incorporation, cell division rate). The data set is classed as cell-based. As to conditions: 24 h; for Assay in which the combination showed better activity than the corresponding active substance alone: BrdU: active substance combined with 10 ng/ml N-(4-amino-2-methylquinolin-6-yl)-2-((4-ethylphenoxy)methyl)benzamide, assay named in cell = better activity. The text has this:
The cells take up this synthetic nucleic acid, which is detectable by fluorescence detection, and incorporate it into newly synthesized genetic material during cell division. […] This allows conclusions to be drawn about the effect of the individual active substances on cell viability.

As for `CCCCC(O)CO` (stereo not drawn) [1,2-Hexanediol/Hydiol 6, 1,2-Hexanediol], in data set [1], the “Assay in which the combination showed better activity than the corresponding active substance alone: Lipid” value (“Assay … Lipid” for short) is “Lipid”. Besides, the “Assay in which the combination showed better activity than the corresponding active substance alone: LDH” value (from here on “Assay … LDH”) in data set [2] is given as “LDH”.
With `OCc1ccccc1` [Benzyl alcohol], the “Assay … Lipid” value in data set [1] is “Lipid”.
Turning to `OCCCCO` [Butylene glycol/Natan, Butylene glycol], the “Assay in which the combination showed better activity than the corresponding active substance alone: BrdU” value (“Assay … BrdU” below) in data set [3] is listed as “BrdU”. The “Assay … Lipid” value in data set [1] is on record as “Lipid”.
Consider `CCOC(=O)c1ccc(O)cc1` [Ethylparaben/Konpar A, Ethylparaben], for which, in data set [3], the “Assay … BrdU” value is reported as “BrdU”. For the same compound, the “Assay … LDH” value in data set [2] is listed as “LDH”.
Consider `CCCCCCCC(=O)OCC(O)CO` (stereo not drawn) [Glyceryl caprylate/emulsifier CY, Glyceryl caprylate], for which the “Assay … BrdU” value in data set [3] is “BrdU”.
As for `CC1(C)C(=O)N(CO)C(=O)N1CO` [Kondant/DMDM hydantoin, DMDM hydantoin], the “Assay … BrdU” value in data set [3] is “BrdU”. Further, the “Assay … Lipid” value in data set [1] was “Lipid”.
Take `Cn1sccc1=O` [Methylisothiazolinone/Konlon 950, Methylisothiazolinone]: the “Assay … BrdU” value in data set [3] was “BrdU”. In data set [1], the “Assay … Lipid” value is “Lipid”.
Turning to `CC(CO)CO` [Methylpropanediol/Lolo, Methylpropanediol], the “Assay … Lipid” value in data set [1] was “Lipid”.
With `CCc1ccc(OCc2ccccc2C(=O)Nc2ccc3nc(C)cc(N)c3c2)cc1` [N-(4-Amino-2-methylquinolin-6-yl)-2-((4-ethylphenoxy)methyl)benzamide], the “rate of incorporation of BrdU” value in data set [3] (in combination with a preservative versus the corresponding preservative alone, FIG. 1) is listed as “increase”. The “accumulation of AdipoRed (differentiation performance of the adipocytes)” value in data set [1] (in combination with a preservative versus the corresponding preservative alone, one week treatment, FIG. 2) is given as “increase”. Also, the “rate of escape of LDH” value in data set [2] (in combination with a preservative versus the corresponding preservative alone, human adipocytes, FIG. 3) is given as “decrease”.
On to `Cc1cc(CC(C)CC(C)(C)C)n(O)c(=O)c1.NCCO` (stereo not drawn) [Piroctone olamine/Octupus, Piroctone olamine], for which the “Assay … BrdU” value in data set [3] was “BrdU”. Further, the “Assay … Lipid” value in data set [1] is on record as “Lipid”.
As for `O=C([O-])c1ccccc1.[Na+]` [Sodium benzoate], the “Assay … Lipid” value in data set [1] is “Lipid”. The “Assay … LDH” value in data set [2] is “LDH”.
Turning to `O=C([O-])c1ccccc1O.[Na+]` [Sodium salicylate], the “Assay … Lipid” value in data set [1] is “Lipid”.
For the compound `CCCCCCC(O)CO` (stereo not drawn) [octane-1,2-diol], the “Assay … BrdU” value in data set [3] is listed as “BrdU”. Further, in data set [2], the “Assay … LDH” value is listed as “LDH”.
With “Phenoxyethanol [Phenoxyethanol/Phenoxetol]”, the “Assay … Lipid” value in data set [1] is on record as “Lipid”.

Values taken from patent US20210186838A1, “ACTIVE SUBSTANCE COMBINATIONS OF N-(4-AMINO-2-METHYLQUINOLIN-6-YL)-2-((4-ETHYLPHENOXY)METHYL)BENZAMIDE AND ONE OR MORE COSMETICALLY OR DERMATOLOGICALLY ACCEPTABLE PRESERVATIVES AND/OR PRESERVATIVE AUXILIARIES” (BEIERSDORF AG, priority 2017, published 2021).
